{
  "source": "paper PMC8591201",
  "about": "“Anti-Tumor Activity of AZD4547 Against NTRK1 Fusion Positive Cancer Cells Through Inhibition of NTRKs” (Frontiers in Oncology, 2021)",
  "assay_in_all_cases": "cells",
  "set-up_in_all_cases": "Anti-proliferation, 10-point dose response, CellTiter-Glo luminescence (MTT stated for KM12(Luc)), GI50 fitted in Prism",
  "key": {"A375": {"system": "A375", "conditions": "Homo sapiens, A-375, 72 h, read-out: GI50 (µM) a", "experimental": "(§1) To obtain the GI50 value of a substance, cell viability was measured using MTT (G4000, Promega, USA) for KM12(Luc) cell and Cell titer glo (G7572, Promega, USA) for other cell lines. For adherent cells, cells were seeded at 5,000 cells/well in a 96-well plate and treated with a substance one day after cell seeding. For suspension cells, 10,000 cells/well were seeded and the substance was treated after 4 h stabilization of cells. The substance was treated at 10 points of 1:3 serial dilution (0–100 µmol/L) for 72 h. For MTT assay, 15 µL dye solution was added to each well and incubated 4 h at 37°C. 100 µL of solubilization solution was added and followed 1 hr incubation. Absorbance at 570 nm of each well was recorded using EnVision microplate reader (Perkin Elmer). For Cell titer glo assay, Cell titer glo reagent was treated in each well and measured the luminescence by EnVision microplate reader (Perkin Elmer). Viable cells in each well were normalized by using 0.5% DMSO-treated wells (100%). The inhibitor dose−response curve was fitted and GI50 values were calculated using Prism 7.0 software (GraphPad). All assays were performed in duplicate and the standard deviation (SD) was determined from two independent experiments. KM12(Luc) was purchased from the JCRB cell bank. KM12 (Luc) was used within 6 months after purchase and the DNA profiles were confirmed using a short tandem repeat (STR) analysis by the Korean Cell Line Bank. KM12(Luc) cells were maintained in DMEM supplemented with 10% FBS and antibiotics. Parental Ba/F3 cells were purchased from DSMZ and were grown in RPMI1640 supplemented with 10% FBS and antibiotics in the presence of IL3, Transformed Ba/F3 cell lines were grown in the same media without IL3. Cells used in this study were negative for mycoplasma contamination. AN3-CA, HEC1A, U138, 8505C, MKN28, MKN45, A172, A375, Capan-1 HeLa, HEP3B, MCF-7 and MIA-paca-2 cells were maintained in DMEM (Welgene, Korea) supplemented with 10% FBS and antibiotics (Welgene, Korea). Otherwise, all cells were maintained in RPMI (Welgene, Korea) supplemented with 10% FBS and antibiotics (Welgene, Korea). To identify AZD4547 sensitive cell lines other than FGFR-mutant driven cancer cells, GI50 values were determined for AZD4547 against 64 different cancer cell lines, including AN3-CA used as a positive control ( Figure 1A and Table S1 ). […] Also, inhibitory activity of AZD4547 against DDR1 or FLT3 allows suppression of proliferation of U-2-OS and MV4-11 ([43]). Therefore, our attention focused on the inhibitory activity of AZD4547 against KM12(Luc) cell lines which have the TPM3-NTRK1 fusion gene. To exclude the possibility that the anti-proliferation activity of AZD4547 against KM12(Luc) is a common characteristic of FGFR inhibitors, we determined if BGJ398, a representative FGFR inhibitor, is also capable of suppressing proliferation of KM12(Luc) cells ( Figure 1B )."}, "HEP3B": {"system": "HEP3B", "conditions": "Homo sapiens, Hep3B, 72 h, read-out: GI50 (µM) a", "experimental": "as §1"}, "HT-29": {"system": "HT-29", "conditions": "Homo sapiens, HT-29, 72 h, read-out: GI50 (µM) a", "experimental": "as §1"}, "MDA-MB-453": {"system": "MDA-MB-453", "conditions": "Homo sapiens, MDA-MB-453, 72 h, read-out: GI50 (µM) a", "experimental": "as §1"}, "MDA-MB-468": {"system": "MDA-MB-468", "conditions": "Homo sapiens, MDA-MB-468, 72 h, read-out: GI50 (µM) a", "experimental": "as §1"}, "Molm-14": {"system": "Molm-14", "conditions": "Homo sapiens, MOLM-14, 72 h, read-out: GI50 (µM) a", "experimental": "as §1"}, "NCI-H1299": {"system": "NCI-H1299", "conditions": "Homo sapiens, NCI-H1299, 72 h, read-out: GI50 (µM) a", "experimental": "as §1"}, "NCI-H1975": {"system": "NCI-H1975", "conditions": "Homo sapiens, NCI-H1975, 72 h, read-out: GI50 (µM) a", "experimental": "as §1"}, "NCI-H417": {"system": "NCI-H417", "conditions": "Homo sapiens, NCI-H417, 72 h, read-out: GI50 (µM) a", "experimental": "as §1"}, "OVCAR-8": {"system": "OVCAR-8", "conditions": "Homo sapiens, OVCAR-8, 72 h, read-out: GI50 (µM) a", "experimental": "as §1"}, "SW620": {"system": "SW620", "conditions": "Homo sapiens, SW-620, 72 h, read-out: GI50 (µM) a", "experimental": "as §1"}, "U937": {"system": "U937", "conditions": "Homo sapiens, U-937, 72 h, read-out: GI50 (µM) a", "experimental": "as §1"}},
  "data": [
    {"smiles": "COc1cc(CCc2cc(NC(=O)c3ccc(N4C[C@@H](C)N[C@@H](C)C4)cc3)n[nH]2)cc(OC)c1", "note": "[AZD4547]", "values": [
      {"measurement": "GI50", "setting": "A375", "value": 11.4, "unit": "µM"},
      {"measurement": "GI50", "setting": "HEP3B", "value": 19.7, "unit": "µM"},
      {"measurement": "GI50", "setting": "HT-29", "value": 9.63, "unit": "µM"},
      {"measurement": "GI50", "setting": "MDA-MB-453", "value": 5.36, "unit": "µM"},
      {"measurement": "GI50", "setting": "MDA-MB-468", "value": 11.5, "unit": "µM"},
      {"measurement": "GI50", "setting": "Molm-14", "value": 1.25, "unit": "µM"},
      {"measurement": "GI50", "setting": "NCI-H1299", "value": 60.6, "unit": "µM"},
      {"measurement": "GI50", "setting": "NCI-H1975", "value": 28.9, "unit": "µM"},
      {"measurement": "GI50", "setting": "NCI-H417", "value": 5.99, "unit": "µM"},
      {"measurement": "GI50", "setting": "OVCAR-8", "value": 4.97, "unit": "µM"},
      {"measurement": "GI50", "setting": "SW620", "value": 11, "unit": "µM"},
      {"measurement": "GI50", "setting": "U937", "value": 12.2, "unit": "µM"}
    ]}
  ]
}
